Consider two molecules from article doi:10.1101/2024.09.27.615266v1 (biorxiv, 2024).

For series [1], the target named is T1, CYP2A6 (commercial, Vivid kit Baculosomes) (Homo sapiens, UniProt P11509).
T1 sequence (P11509 1-494): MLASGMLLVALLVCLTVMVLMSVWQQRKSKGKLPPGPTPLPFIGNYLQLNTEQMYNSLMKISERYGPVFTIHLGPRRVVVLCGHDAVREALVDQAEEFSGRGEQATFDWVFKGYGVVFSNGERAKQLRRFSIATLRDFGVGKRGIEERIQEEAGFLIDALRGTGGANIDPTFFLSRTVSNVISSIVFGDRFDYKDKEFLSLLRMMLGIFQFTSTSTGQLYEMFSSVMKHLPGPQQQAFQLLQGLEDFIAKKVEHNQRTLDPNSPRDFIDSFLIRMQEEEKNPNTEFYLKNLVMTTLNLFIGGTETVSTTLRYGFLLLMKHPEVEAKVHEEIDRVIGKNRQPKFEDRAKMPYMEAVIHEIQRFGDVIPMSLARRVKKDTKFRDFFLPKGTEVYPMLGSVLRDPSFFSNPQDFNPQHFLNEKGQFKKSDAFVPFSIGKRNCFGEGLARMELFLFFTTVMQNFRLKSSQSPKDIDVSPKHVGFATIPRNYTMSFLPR
Kind of series: fluorescent 3-cyano coumarin turnover, Morrison tight-binding fit. Type of series: biochemical.

Substrate in series [2]: N#Cc1cc2ccccc2oc1=O
Kind of series: purified protein. In kind it is biochemical, Homo sapiens. The conditions noted are these: 10 nM CYP2A6, 30 μM NADPH, 0.25-32 μM substrate.

Broadly, the Ki is a dissociation constant, usually derived from enzyme kinetics or from competition with a known ligand. Low readings indicate a stronger hold on the target, high ones a looser hold on the target. In the case of `CCCCCC(O)/C=C/C=O` (centres unmarked) [HNE], the Ki in series [1] stood at 208 ± 35.4 µM.

B1: CYP2A6 (commercial, Vivid kit Baculosomes) (Homo sapiens) (protein)
chain: T1 sequence (P11509 1-494)
For orientation: Km means the substrate concentration at which the rate is half of its maximum. In the case of B1, the Km in series [2] was 12 ± 6 µM.
